Reference: patent publication US7452546B2, “Particles containing agricultural active ingredients” (priority 1997, dated 2008)
Like-named read-outs stand apart in the source and are kept apart here.

Tests used:
[1] = Water saturation concentration of active ingredient; type: physicochemical; settings: room temperature stated for epoxiconazole
plants = settings: cited from earlier work
[2] = The Pesticide Manual, Eleventh Edition, 1997

SMILES	water saturation concentration [1]	phytotoxicity to plants (plants; in vivo)	phytotoxicity to plants (plants; [2])
Fc1ccc([C@]2(Cn3cncn3)O[C@H]2c2ccccc2Cl)cc1 (racemic) [epoxiconazole]	7 ppm		
CC1(C)CCC(Cc2ccc(Cl)cc2)C1(O)Cn1cncn1 (stereo not drawn) [metconazole]		can cause stunting and yellowing of plants	
CCCCC(O)(Cn1cncn1)c1ccc(Cl)cc1Cl (stereo not drawn) [hexaconazole]		can cause damage to McIntosh apples	
CC(C)(C)C(O)C(Oc1ccc(-c2ccccc2)cc1)n1cncn1 (stereo not drawn) [bitertanol]			can cause damage to fruit crops
CC1COC(Cn2cncn2)(c2ccc(Oc3ccc(Cl)cc3)cc2Cl)O1 (stereo not drawn) [difenoconazole]			can cause chlorosis in wheat
CC(C)(C)C(O)(CCc1ccc(Cl)cc1)Cn1cncn1 (stereo not drawn) [tebuconazole]	32 ppm		
